# Source: patent US20250101470A1, “METHOD FOR IMPROVING THE YIELD OF ERINACINE A BY LIQUID FERMENTATION OF HERICIUM ERINACEUS” (Zhejiang University of Technology, priority 2023, published 2025)
# Several values for one entry are separate records, joined by “and”; a condition that tells them apart may be missing. Equal values may be shown once.
# System: Hericium erinaceus strain ACCC50268
# Experiment: Liquid fermentation of Hericium erinaceus with an inducer added; mycelium weighed, Erinacine A in methanol extract measured by HPLC
# Assay type: cell-based
# Details: for effect on Erinacine A yield (in words): 5 mg/L added on 5th day; for increase of Erinacine A content in the mycelium: 5 mg/L inducer versus no inducer (0.19±0.05 mg/g dry mycelium); for increase of Erinacine A yield: 5 mg/L inducer versus no inducer (4.48±0.96 mg/L)
# Protocol: The strain number of a Hericium erinaceus strain is ACCC50268; source: China Agricultural Culture Collection and Management Center.
# (S.1) A strain of Hericium erinaceus was subcultured for 3 generations to achieve strain activation. The subculture temperature is 25-28° C., and the optimal culture temperature in this example is 28° C., and the time is 14 days, so that the entire inclined plane can be grown to obtain a slope strain. The components of PDA inclined medium are: potato extract, 15-25 g of glucose, 10-15 g of agar powder, and the volume is set to 1 L with water. In this example, the optimal PDA inclined medium components are as follows: potato extract, 20 g of glucose, 15 g of agar powder, and the volume is determined to 1 L with water;
# (S.2) The slope strains obtained in step (S.1) were inoculated into the primary liquid seed medium for culture. One vial of bevel strains was inoculated into two vials of primary liquid seed medium. The components of liquid seed medium are: glucose 25-35 g, soybean meal powder 15-30 g, potassium dihydrogen phosphate 0.5-2 g, magnesium sulfate 0-1 g, and the balance is water. The culture conditions of liquid seed medium are: 1-10 days at 25-28° C. and 130-160 rpm in the dark. In this example, the optimal liquid seed medium components are as follows: glucose 30 g, soybean meal powder 20 g, potassium dihydrogen phosphate 1 g, magnesium sulfate 0.5 g, and the balance is water. The medium was fixed to 1 L with purified water, and the prepared liquid seed medium was loaded into a 500 mL Erlenmeyer flask with a liquid volume of 200 mL, and cultured at 27° C. and 140 rpm for 7 days in the dark, and the liquid seeds of Hericium erinaceus were obtained.
# (S.3) the liquid seeds obtained in step (S.2) are inoculated into the liquid fermentation medium for liquid fermentation culture, the ratio of the liquid seed inoculation volume of Hericium erinaceus to the volume of the liquid fermentation medium is 8-12.5% (i.e., the inoculation amount of Hericium erinaceus liquid seeds is 8-12.5%), and the optimal inoculation amount of Hericium erinaceus liquid seeds in this example is 10%. The components of liquid fermentation medium are: glucose 25-50 g, yeast powder 10-30 g, potassium dihydrogen phosphate 0.5-2 g, magnesium sulfate 0-1 g, and the balance is water. The culture conditions of liquid fermentation medium are: 1-10 days at 25-28° C. and 130-160 rpm in the dark. In this example, the optimal liquid fermentation medium components are as follows: 30 g of glucose, 30 g of yeast powder, 1 g of potassium dihydrogen phosphate, 0.5 g of magnesium sulfate, and the balance is water. The medium was fixed to 1 L with distilled water, and the prepared liquid seed medium was packed into a 500 mL Erlenmeyer flask with a liquid volume of 200 mL, and incubated at 27° C. and 140 rpm for 7 days in the dark. […]
# seeds of Hericium erinaceus obtained in step (S.2) into liquid fermentation medium for liquid fermentation, […] fermentation medium to a concentration of 5 mg/L. […] After the end of fermentation, the medium was filtered through 80 mesh gauze, washed with water three times, and then dried overnight at 60° C. with hot air to obtain Hericium erinaceus mycelium;
# (S.4) The Hericium erinaceus mycelium obtained in step (S.3) was crushed, and 1 g of Hericium erinaceus mycelium dry powder was added to 20 mL of 80% methanol, heated and ultrasonicated. The reaction conditions for ultrasonic extraction of Erinacine A are as follows: ultrasonic power is 200-350 W, heating reaction temperature is 50-70° C., and ultrasonic reaction time is 40-90 min. In this example, the reaction conditions for the optimal ultrasonic extraction of Erinacine A are as follows: ultrasonic extraction at 60° C. and ultrasonic power of 300 W for 60 min. The supernatant was centrifuged to obtain an alcohol extract containing Erinacine A. The alcohol extract was filtered through a 0.22 μm filter membrane and then analyzed in liquid phase. […]
# [1] = 5 mg/L, added on 4th day, 6 days induction fermentation
# [2] = 5 mg/L, added on 5th day, 3 days induction fermentation
# [3] = 5 mg/L, added on 5th day, 5 days induction fermentation
# [4] = 5 mg/L, added on 5th day, 8 days induction fermentation
# [5] = 5 mg/L, added on 6th day, 6 days induction fermentation
# [6] = 5 mg/L, added on 7th day, 6 days induction fermentation
# [7] = 5 mg/L, added on 8th day, 6 days induction fermentation
# [8] = 5 mg/L, added on third day, 6 days induction fermentation
# [9] = 10 mg/L, added on 5th day, 6 days induction fermentation
# [10] = 50 mg/L, added on 5th day, 6 days induction fermentation
# [11] = inducer 5 mg/L in liquid fermentation medium, added on 5th day, 6 days induction fermentation
# [12] = inducer 5 mg/L in liquid fermentation medium, added on 5th day, 6 days induction fermentation, listed as Example 1
# [13] = inducer 5 mg/L in liquid fermentation medium, added on 5th day, 6 days induction fermentation, listed as Example 2
# [14] = 1 mL of the substance (purity greater than 95%) added on 5th day, 6 days induction fermentation
# [15] = 1 mg/L, added on 5th day, 6 days induction fermentation
# [16] = 5 mg/L, added on 5th day, 1 day induction fermentation
# [17] = 5 mg/L, added on 5th day, 2 days induction fermentation
# [18] = 5 mg/L, added on 5th day, 4 days induction fermentation
# [19] = 20 mg/L, added on 5th day, 6 days induction fermentation
compound,measurement,setting,value
C[n+]1ccc(-c2cc[n+](C)cc2)cc1 [methyl viologen],effect on Erinacine A yield (in words),6 days induction fermentation,significantly increased the yield of Erinacine A
same,increase of Erinacine A content in the mycelium,,about 115.47 times
same,increase of Erinacine A yield,,about 92.60 times
same,Erinacine A content,[1],1.52 ± 0.30 mg/g dried mycelium
same,Erinacine A yield,[1],22.18 ± 3.84 mg/L
same,Mycelium yield,[1],2.00 ± 0.84 g/L
same,Erinacine A content,[2],2.29 ± 0.52 mg/g dried mycelium
same,Erinacine A yield,[2],40.30 ± 7.52 mg/L
same,Mycelium yield,[2],17.68 ± 0.50 g/L
same,Erinacine A content,[3],16.58 ± 0.43 mg/g dried mycelium
same,Erinacine A yield,[3],276.77 ± 4.72 mg/L
same,Mycelium yield,[3],5.45 ± 1.39 g/L
same,Erinacine A content,[4],8.97 ± 2.33 mg/g dried mycelium
same,Erinacine A yield,[4],179.50 ± 62.29 mg/L
same,Mycelium yield,[4],19.79 ± 0.76 g/L
same,Erinacine A content,[5],2.98 ± 1.16 mg/g dried mycelium
same,Erinacine A yield,[5],69.29 ± 30.01 mg/L
same,Mycelium yield,[5],23.05 ± 1.08 g/L
same,Erinacine A content,[6],2.68 ± 0.66 mg/g dried mycelium
same,Erinacine A yield,[6],61.60 ± 10.06 mg/L
same,Mycelium yield,[6],23.22 ± 1.93 g/L
same,Erinacine A content,[7],0.57 ± 0.12 mg/g dried mycelium
same,Erinacine A yield,[7],13.29 ± 2.55 mg/L
same,Mycelium yield,[7],23.28 ± 0.57 g/L
same,Erinacine A content,[8],0.05 ± 0.01 mg/g dried mycelium
same,Erinacine A yield,[8],0.41 ± 0.06 mg/L
same,Mycelium yield,[8],8.64 ± 1.54 g/L
same,Erinacine A content,[9],20.61 ± 3.21 mg/g dried mycelium
same,Erinacine A yield,[9],400.44 ± 69.30 mg/L
same,Mycelium yield,[9],7.40 ± 0.36 g/L
same,Erinacine A content,[10],0.21 ± 0.04 mg/g dried mycelium
same,Erinacine A yield,[10],3.71 ± 1.06 mg/L
same,Mycelium yield,[10],17.71 ± 1.29 g/L
same,Erinacine A content,[11],21.94±2.40 mg/g dried mycelium
same,Erinacine A yield,[11],414.84 ± 30.03 mg/L
same,Mycelium yield,[11],18.96 ± 0.69 g/L
same,Erinacine A content,[12],94.94 ± 2.40 mg/g dried mycelium
same,Erinacine A yield,[12],414.84 ± 30.03 mg/L and 418.84 ± 30.03 mg/L
same,effect on liquid fermentation growth of Hericium erinaceus (in words),methyl viologen solution added at different times,inhibitory effect on the liquid fermentation growth of Hericium erinaceus
C=C(C)[C@H]1Cc2c(ccc3c2O[C@@H]2COc4cc(OC)c(OC)cc4[C@@H]2C3=O)O1 [rotenone],effect on Erinacine A yield (in words),6 days induction fermentation,positive effect on the increase of Erinacine A yield
same,increase of Erinacine A content in the mycelium,,about 2.52 times
same,increase of Erinacine A yield,,about 2.06 times
same,Erinacine A content,[11],0.67 mg/g dried mycelium and 0.67±0.04 mg/g dried mycelium
same,Erinacine A yield,[11],13.72 mg/L and 13.72 ± 0.24 mg/L
same,Mycelium yield,[11],8.50 ± 1.69 g/L
same,Erinacine A content,[13],0.67 ± 0.04 mg/g dried mycelium
same,Erinacine A yield,[13],13.72 ± 0.24 mg/L
CCCCCCCC/C=C\CCCCCCCC(=O)O [oleic acid],effect on synthesis of Erinacine A (in words),1 mL added on the 5th day of liquid fermentation,did not show obvious stimulating effects
same,Erinacine A content,[14],0.20 ± 0.10 mg/g dried mycelium
same,Erinacine A yield,[14],4.70 ± 2.16 mg/L
same,Mycelium yield,[14],23.72 ± 1.04 g/L
methyl viologen,Erinacine A content,[15],0.63 ± 0.09 mg/g dried mycelium
same,Erinacine A yield,[15],13.93 ± 4.56 mg/L
same,Mycelium yield,[15],9.49 ± 2.94 g/L
same,Erinacine A content,[16],0.07 ± 0.01 mg/g dried mycelium
same,Mycelium yield,[16],20.16 ± 0.85 g/L
same,Erinacine A content,[17],0.68 ± 0.27 mg/g dried mycelium
same,Erinacine A yield,[17],12.53 ± 3.82 mg/L
same,Mycelium yield,[17],17.94 ± 1.68 g/L
same,Erinacine A content,[18],5.49 ± 1.60 mg/g dried mycelium
same,Erinacine A yield,[18],103.99 ± 18.67 mg/L
same,Erinacine A content,[19],1.50 ± 0.38 mg/g dried mycelium
same,Erinacine A yield,[19],29.47 ± 7.44 mg/L
same,Mycelium yield,[19],19.61 ± 0.48 g/L
